According to publication PMC6271277, “^68Ga-Labeled Cyclic NGR Peptide for MicroPET Imaging of CD13 Receptor Expression” (Molecules, 2014):

Key:
[1] = target: T1, CD13 receptor (Homo sapiens, UniProt P15144); assay: Cell-based competitive binding assay against ^125I-NGR; conditions: HT-1080 cells, competitor 10^-12 to 10^-5 M, gamma counter, n = 3; read-out: IC50, inhibition of ^125I-NGR binding to CD13 receptor
T1 construct: endogenous in cells; host or cells: HT-1080 human fibrosarcoma cells
Protocol: In vitro CD13 binding affinity and specificity of NOTA-G3-NGR were tested by a cell-based competitive assay. The binding of ^125I-NGR to CD13 receptors in HT-1080 cells can be inhibited by NOTA-G3-NGR in a dose-dependent manner (Figure 1b).
In vitro CD13 receptor binding affinity and specificity of NOTA-G3-NGR in HT-1080 cells were assessed using a cell-based competitive assay. ^125I-labeled linear NGR peptide (sequence H-Tyr-Gly-Gly-Cys-Asn-Gly-Arg-Cys-OH) was prepared using the Iodogen method and used as the radioligand for CD13. The non-radiolabeled NOTA-G3-NGR peptide (concentrations at a range from 10^−12 to 10^−5 M) was co-incubated with ^125I-NGR in HT-1080 cells. After washing with ice-cold binding buffer three times, the HT-1080 cells were lysed in 200 µL of lysis buffer. The cell-associated radioactivity was then measured using a gamma counter (Beijing PET CO., Ltd., Beijing, China). The IC50 (50% inhibitory concentration) value was obtained by fitting the data using nonlinear regression with GraphPad Prism (GraphPad Software, San Diego, CA, USA). Experiments were performed in triplicate.

[2] = physchem; format: physicochemical; conditions: pH 7.4
Protocol: The octanol–water partition coefficient value was determined by measuring the distribution (logD) of radioactivity in octanol and PBS. Approximately 5 KBq of ^68Ga- NOTA-G3-NGR (2 μL) was added to a vial containing 0.5 mL of octanol and 0.5 mL of PBS (pH = 7.4). The mixture was then vortexed vigorously for 15 min. Subsequently, the mixture was centrifuged at 12,500 rpm for 5 min to ensure the complete separation of layers. Aliquots of the aqueous and octanol layers were collected, measured in a gamma counter (Beijing PET CO., Ltd., Beijing, China). The octanol–water partition coefficient value was then calculated (n = 5).

T1 sequence (P15144 whole entry): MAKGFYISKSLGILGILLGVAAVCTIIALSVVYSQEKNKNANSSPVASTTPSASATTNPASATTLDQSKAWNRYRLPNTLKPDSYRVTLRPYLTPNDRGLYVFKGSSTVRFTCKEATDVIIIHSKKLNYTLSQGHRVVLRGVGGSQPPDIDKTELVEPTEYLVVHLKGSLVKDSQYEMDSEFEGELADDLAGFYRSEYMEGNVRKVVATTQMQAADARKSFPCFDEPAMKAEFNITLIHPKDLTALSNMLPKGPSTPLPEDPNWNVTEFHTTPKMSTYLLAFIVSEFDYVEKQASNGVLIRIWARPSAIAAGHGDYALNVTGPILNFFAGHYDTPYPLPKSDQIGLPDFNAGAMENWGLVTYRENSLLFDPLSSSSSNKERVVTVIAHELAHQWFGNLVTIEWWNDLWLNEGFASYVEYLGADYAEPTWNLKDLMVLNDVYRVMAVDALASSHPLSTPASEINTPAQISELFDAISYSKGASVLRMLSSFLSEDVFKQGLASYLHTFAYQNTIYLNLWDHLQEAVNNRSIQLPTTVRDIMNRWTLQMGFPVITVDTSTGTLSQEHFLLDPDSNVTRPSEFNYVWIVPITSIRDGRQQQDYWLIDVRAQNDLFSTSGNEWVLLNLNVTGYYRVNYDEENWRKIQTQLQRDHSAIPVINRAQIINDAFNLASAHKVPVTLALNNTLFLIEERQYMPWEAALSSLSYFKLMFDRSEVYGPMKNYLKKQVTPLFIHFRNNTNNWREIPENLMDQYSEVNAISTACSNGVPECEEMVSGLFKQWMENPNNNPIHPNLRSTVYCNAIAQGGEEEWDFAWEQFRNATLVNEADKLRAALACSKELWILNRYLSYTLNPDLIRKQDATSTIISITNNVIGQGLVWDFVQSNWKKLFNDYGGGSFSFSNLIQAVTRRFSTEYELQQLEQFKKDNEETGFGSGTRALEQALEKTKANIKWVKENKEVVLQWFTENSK

N=C(N)NCCC[C@@H]1NC(=O)CNC(=O)[C@H](CC(N)=O)NC(=O)[C@@H](NC(=O)CNC(=O)CNC(=O)CNC(=S)Nc2ccc(CC3CN(CC(=O)O)CCN(CC(=O)O)CCN3CC(=O)O)cc2)CSSC[C@@H](C(=O)O)NC1=O (some centres unmarked) [NOTA-G3-NGR]
IC50 [1]: 74.7 ± 3.91 nM

N=C(N)NCCC[C@@H]1NC(=O)CNC(=O)[C@H](CC(N)=O)NC(=O)[C@@H](NC(=O)CNC(=O)CNC(=O)CNC(=S)Nc2ccc(CC3CN(CC(=O)O)CCN(CC(=O)O)CCN3CC(=O)O)cc2)CSSC[C@@H](C(=O)O)NC1=O (some centres unmarked) [^68Ga-NOTA-G3-NGR, metal not drawn]
logD [2]: -2.25 ± 0.17
